The record followed here is ChEMBL document CHEMBL1154394, “The preparation of 2,6-disubstituted pyridinyl phosphine oxides as novel anti-cancer agents” (Bioorg Med Chem Lett, 2009).

pIC50: −log10 of the molar value. Active and inactive are the calls of the source. The calls are words filed in the database; no cut-off is given here.

Test [1] relates to MDA-MB-231. The test can be described thus: Cytotoxicity against human MDA-MB-231 cells after 48 hrs by one step ATP lite assay. It counts as functional, cell-based.
Test [2] deals with SK-HEP1. The test can be described thus: Cytotoxicity against human SKHEP1 cells after 48 hrs by one step ATP lite assay. It counts as functional, cell-based.
Test [3] can be described thus: Cytotoxicity against non malignant human hematological disorder bone marrow cells after 48 hrs by one step ATP lite assay. The conditions noted are these: Bone marrow cell. It counts as cell-based.
In test [4] the test system is MDA-MB-231. As to the kind of experiment: Induction of apoptosis in human MDA-MB-231 cells assessed as morphological changes at 60 uM after 48 hrs. It counts as functional, cell-based.
Test [5] has as its system SK-HEP1. The test can be described thus: Induction of apoptosis in human SKHEP1 cells assessed as morphological changes at 60 uM after 48 hrs. It is filed as functional, cell-based.
Test [6] deals with MDA-MB-231. The test can be described thus: Growth inhibition of human MDA-MB-231 cells at 70 uM after 48 hrs by one step ATP lite assay in presence of z-VAD-fmk. It is filed as functional, cell-based.
In test [7] the test system is SK-HEP1. The test can be described thus: Growth inhibition of human SKHEP1 cells at 70 uM after 48 hrs by one step ATP lite assay in presence of z-VAD-fmk. It is filed as functional, cell-based.
The test system of test [8] is MDA-MB-231. As to the kind of experiment: Growth inhibition of human MDA-MB-231 cells at 100 uM after 48 hrs by one step ATP lite assay. It is filed as functional. The following applies: MDA-MB-231, 48 h, read-out: GI.
Test [9] concerns SK-HEP1. The test can be described thus: Growth inhibition of human SKHEP1 cells at 100 uM after 48 hrs by one step ATP lite assay. It is filed as functional. The arrangement: scale not given: the % may be the effect or the level left.

As to `COc1cc(P(=O)(c2ccccc2)c2ccccc2)cc(OC)n1`, the result in the test on MDA-MB-231 [1] and in the test with SK-HEP1 [2] was Active.
Regarding `COc1nc(OC)c(Br)c(P(=O)(c2ccccc2)c2ccccc2)c1Br`, the negative logarithm of the IC50 (pIC50) is 4.32 in the test with MDA-MB-231 [1] (MDA-MB-231, 48 h); 4.41 in the test on SK-HEP1 [2] (SK-HEP1, 48 h); 4.27 in [3]. Also, the outcome in the test with MDA-MB-231 [4] and in the test on SK-HEP1 [5] was Active. For the same compound, the result with MDA-MB-231 [6] and in the test on SK-HEP1 [7] was inactive.
Consider `COc1cc(P(=O)(c2ccccc2)c2ccccc2)c(Br)c(OC)n1`, for which the inhibition of growth at 100 µM in the test with MDA-MB-231 [8] came out at 30%. In addition, the Activity in the test with SK-HEP1 [9] was 30%. The outcome with MDA-MB-231 [4] and in the test on SK-HEP1 [5] was Active.

One may read the pIC50 as the negative decadic logarithm of the IC50, by convention in mol/L.
